Here are results for 90 compounds from a melting point compilation (Tetko et al.; mined from patent text by program, amines drawn as free bases though some values may be those of a salt).

Broadly, the melting point is the temperature, or range, at which the solid turns liquid.

SMILES strings stand for the structures.

`O=C(C=Cc1ccc(OC(F)(F)F)cc1)C=Cc1ccc(OC(F)(F)F)cc1` had a melting point of 112 to 115 °C. As for `O=[N+]([O-])c1cc(Cl)cc2c(Cl)ccnc12`, the figure is 149 to 164 °C.

`COC(=O)c1cnc(F)cn1` showed a melting point of 55.6 to 56.7 °C. In the case of `CC1(C)CS(=O)(=O)CC(C)(C)N1N`, the melting point turned out to be 122 °C. In turn, `Fc1ccc(-c2ncn(C3CCNCC3)c2-c2ccnc(Oc3cccc(C(F)(F)F)c3)n2)cc1` showed a melting point of 137 to 138 °C. The result for `COc1cc2c(=O)n(CCN3CCCCC3)c3c4cc5c(cc4nnc3c2cc1OC)OCO5` reads 294 to 295 °C; that for `CCOC(=O)c1cc(OC)c(Cc2cnc(N)nc2N)c(OC)c1`, 201 to 202 °C; that for `CCOc1ccc(C(=O)OC)cc1C(N)=O`, 159 to 161 °C. Regarding `CCN1CCC(N2C(=O)c3ccc([N+](=O)[O-])cc3C2=O)CC1`, the melting point fell in the range of 153 to 155 °C. As for `O=Cc1cc(F)c(O)c(F)c1O`, the figure is 141 to 143 °C; as for `CCCCC(C)OC(=O)Nc1ccc(-c2ncn(-c3ccc(OC(F)(F)F)cc3)n2)cc1` (stereo not given), 111 to 113 °C; as for `Cc1oc(-c2cccc(-c3ccc(C(=O)O)cc3)c2)nc1CCOc1cccc(OC(C)(C)C(=O)O)c1`, 184 °C. The result for `COc1cc(Br)ccc1-c1ccc(Br)cc1[N+](=O)[O-]` reads 127 to 129 °C; that for `Cc1nc(-c2ccc3c(c2)CCCC3)c(Br)o1`, 97 to 98 °C.

With `CCOC(=O)C(C(=O)OCC)(c1ccccc1)N1CCN(CCO)CC1`, the melting point was 63 to 64 °C. Consider `C[C@@H](F)c1nc(N)nc(N[C@@H]2CCOc3ccccc32)n1`, for which the melting point was 110 to 112 °C. The compound `COc1ccc(C2=C(c3ccccc3)CCCc3cc(OC4CCCCO4)ccc32)cc1` (stereo not given) yielded a melting point of 131 to 133 °C. `Cc1ccc(C(=O)OC(C)c2nc3c(c(=O)n(C)c(=O)n3C)n2C)cn1` (stereo not given): the melting point is 165 to 180 °C. Take `CC(=O)Oc1ccc(C(=O)O)cc1C(C)(C)C`: the melting point was in the range of 123 to 125 °C. `CCOC(=O)COc1ccc(C(=O)c2c(Br)cnn2CC)c(Cl)c1Cl` had a melting point of 90 to 91 °C. As for `Cc1cc(C)cc(C(=O)c2c(C(C)C)c(=O)[nH]c(=O)n2Cc2ccnc(Cl)n2)c1`, the figure is 197 to 198 °C; as for `O=c1[nH]ccc2c1c(O)nc1cc(Cl)c(Cl)cc12`, more than 350 °C. `COc1ncnc(OC)c1CON=C(C)c1cc(C)cc(C)n1` yielded a melting point of 125 to 126 °C. In turn, `CC(C(N)=O)c1ccc(NS(=O)(=O)C(C)C)cc1` (stereo not given) yielded a melting point of 125 to 127 °C. In turn, `c1ccc(SC2(Sc3ccccc3)CCCn3cc(-c4ccccc4)nc32)cc1` yielded a melting point of 129 to 131 °C. As for `NS(=O)(=O)c1cc(C(=O)O)cc(SCC(Br)CBr)c1Cc1ccccc1` (stereo not given), the figure is 205 to 207 °C; as for `CCOC(=O)C=Cc1cc(OCc2ccccc2)ccc1-c1ccc(-c2cccc(C)c2)c(C(F)F)c1`, 124 to 126 °C. The compound `CCC(CC)Nc1cc(C)nc(Sc2c(C)cc(C)cc2C)c1C` had a melting point of 108 to 110 °C. On to `c1ccc(NCC2CCCO2)cc1` (stereo not given), for which the melting point lay within 149 to 156 °C. Consider `Cn1c(CC#N)ccc1C(=O)c1ccc(N)cc1`, for which the melting point was in the range of 137 to 142 °C. `COc1ccc(N(CCCC(=O)O)C(=O)C(C)N(C(=O)c2ccc(Cl)cc2Cl)c2ccc(OC)cc2)cc1` (stereo not given): the melting point lay within 159 to 160 °C. Turning to `O=C(O)CCOCC(I)=C(I)I`, the melting point fell in the range of 115 to 117 °C. The compound `Cc1cc(C(=O)Cl)ccc1[N+](=O)[O-]` displayed a melting point of 29 to 30 °C. As for `Cc1cccn2c(C)c(-c3ccc4c(c3)NC(=O)C(C)O4)nc12` (stereo not given), the figure is 249 to 250 °C. For `CCOC=C1C(=O)N(c2cccc(Cl)c2)c2ccccc21`, the melting point lay in the range of 132 to 134 °C.

For the compound `CC(C)C(=O)Nc1c(N)cc(Br)cc1OCc1ccccc1`, the melting point lay within 214 to 215 °C. Regarding `COc1cccc(-c2cn(N)c(N)n2)c1`, the melting point fell in the range of 181 to 182 °C. As to `Cc1ccccc1-c1ccc(O)c(C(=O)O)c1`, the melting point came to 151 °C. On to `C#CCOC(=O)C=CC(=O)OCC#C`, for which the melting point is 78 to 80 °C.

As to `COc1cc(COC(=O)NCCN2CCOCC2)ccc1OC(C)=O`, the melting point lay in the range of 82 to 83 °C. Regarding `CC(=CCO)c1ccc(C2CCCCC2)cc1`, the melting point lay within 54 to 55 °C. Take `CSC1=C(c2cc3ccccc3s2)N2CCN=C2S1`: the melting point was 95 to 97 °C. Compound `CN(C)C(=O)C(C#N)=C1Nc2ccccc2O1` had a melting point of 196 °C. For the compound `N=C(Nc1cccc(NC(=O)CNC(=O)OCc2ccccc2)c1)N1CCCC1`, the melting point fell in the range of 81 to 82 °C. With `CCOC(=O)Nc1ccc(-c2c[nH]c(=O)cn2)cc1`, the melting point fell in the range of 260 to 262 °C. As for `CNc1ccccc1CS(=O)c1nccn1-c1cc(C)ccn1` (stereo not given), the melting point was 112 to 114 °C. Take `CC(SC1COC(c2ccc(C(=O)Nc3ccc(C#N)cc3)cc2)OC1)C(O)(Cn1cncn1)c1ccc(F)cc1F` (stereo not given): the melting point was determined as 176 °C. The compound `COCOc1c(C)c(OC)c(OCOC)c(CCCCCc2c(OC)c(OCOC)c(C)c(OC)c2OCOC)c1OC` came in with a melting point of 83 to 84 °C. Compound `CC(=O)C1CC(c2ccccc2)CCC1=O` (stereo not given) came in with a melting point of 53 to 54 °C. `O=S(=O)(Nc1nnc(Cl)cc1OCc1cccnc1)c1cccc(Cl)c1Cl` returned a melting point of 216 to 217 °C. `CCN1c2ncc(CSc3ccccc3)cc2C(=O)N(C)c2ccc(Cl)nc21` displayed a melting point of 92 to 93 °C. Consider `CC(C)(C)NCC(O)COc1ccccc1C(=O)Nc1cccc2c1CC(=O)N2` (stereo not given), for which the melting point is 160 °C.

Compound `CNS(=O)(=O)Cc1ccccc1Br` showed a melting point of 72.5 to 74 °C. The compound `OCCCCNc1nnc(-c2ccc(F)c(F)c2Nc2ccc(I)cc2F)o1` displayed a melting point of 82 to 83 °C. Regarding `CC(=O)Nc1cccc2c1C(=O)c1c-2n[nH]c1-c1ccc(N(C)C)cc1`, the melting point was more than 300 °C. On to `Fc1ccc(-c2ncn(C3CCNCC3)c2-c2ccnc(Oc3ccc(-c4ccccc4)cc3)n2)cc1`, for which the melting point was in the range of 192 to 193 °C. In turn, `Cc1cc(C)cc(COCC(NC(=O)c2ccccc2)C(c2ccccc2)c2ccccc2)c1` (stereo not given) yielded a melting point of 128 to 129 °C. As for `C#CCNC(=O)C(c1ccccc1)c1ccccc1`, the figure is 131 °C; as for `Nc1cccc(-c2ccc(C3(O)C4CCC3CN(Cc3ccco3)C4)cc2)n1` (stereo not given), 187 to 202 °C.

With `COc1ccc(C#CC(=Nc2ccc(OC)cc2)N2CCN(Cc3ccc(C)cc3)CC2)cc1`, the melting point is 107 °C.

Compound `Cc1nc2ccc3c(c2o1)OC(CN1C2CCC1CC(O)(c1ccccc1)C2)CO3` (stereo not given) yielded a melting point of 203 to 205 °C. The result for `Cc1oc(-c2ccccc2)nc1C(O)COc1ccc(C=C2SC(=S)NC2=O)nc1` (stereo not given) reads 218 °C; that for `COc1cc(COc2nn(-c3ccccc3)cc2/C=C/C#N)ccc1OCc1nc(-c2ccccc2)oc1C`, 184 to 185 °C.

In the case of `COC1C(OC(=O)c2ccccc2)C(COC(=O)c2ccccc2)OC1n1cc([N+](=O)[O-])c(=O)[nH]c1=O` (stereo not given), the melting point was in the range of 187 to 189 °C. As for `COc1cc2c(cc1OC)C(=O)NC(=O)C2`, the figure is 234 to 238 °C.

Take `COC(=O)c1ncc(C)cc1S(N)(=O)=O`: the melting point was 86 to 88 °C.

Regarding `O=C1SCC(O)=C1Cc1ccc(Cl)c(Cl)c1`, the melting point fell in the range of 239 to 240 °C. For `Cn1nc(C(=O)NCc2ccc(Cl)cc2)c(=O)c2cc(C#CCCO)ccc21`, the melting point was 227 to 229 °C.

Take `FC(F)(F)c1ccn(-c2cc(N3CCOCC3)nc3ccccc23)n1`: the melting point lay within 118 to 120 °C. As for `CC(C)NC(=O)c1ccc(-c2cnc3[nH]c(=O)n(CC4CCCCC4)c3n2)cc1`, the figure is 264 to 268 °C. As for `C=CCn1c(=O)c2c(nc(/C=C/c3cc(OC)c(O)c(OC)c3)n2C)n(CC=C)c1=O`, the figure is 239 to 240 °C. Consider `CC1(C)[C@@H](C=C2CC2)[C@@H]1C(=O)O` (relative stereo), for which the melting point turned out to be 85 °C.

`c1cncc(-c2ccc3nncn3n2)c1` registered a melting point of 199 to 200 °C.

On to `CCCCc1ccccc1OCCCOc1cccc2c(=O)cc(C(=O)O)oc12`, for which the melting point was determined as 168 °C. On to `CC(OS(C)(=O)=O)C(C)n1ncn(-c2ccc(N3CCN(c4ccc(OCC5COC(Cn6cncn6)(c6ccc(F)cc6F)O5)cc4)CC3)cc2)c1=O` (stereo not given), for which the melting point is 172 °C.

As to `C=CC12COc3cc(Cl)ccc3C1=NN(C(=O)Nc1ccc(C(F)(F)F)cc1)C2` (stereo not given), the melting point fell in the range of 157 to 161 °C. For the compound `Cc1cc(OCc2ccccc2)cc2nc(OC(C)C)oc(=O)c12`, the melting point lay in the range of 137 to 138 °C. In turn, `O=C(NC/C=C/c1ccccc1)c1ccoc1` showed a melting point of 115 °C.

Compound `Cc1ccc2c(c1)-c1csc(N)c1C2=O` came in with a melting point of 157 to 159 °C. `O=c1[nH]c2cccc(F)c2c(=O)n1CCCN1CC=C(c2ccc(Cl)cc2)CC1` registered a melting point of 201 to 202 °C. As for `CN(C)c1cccc2c(S(=O)(=O)Nc3ccc(Cl)nc3)cccc12`, the figure is 145 to 146 °C. On to `CCOC(=O)c1cn(C2CC2)c2c(Cl)c(F)c(Cl)cc2c1=O`, for which the melting point was 215 to 217 °C. With `CCOC(=O)c1cnc(OC)nc1Cl`, the melting point was in the range of 26 to 28 °C.

For the compound `CC(C)(Sc1cc(C(C)(C)C)c(O)c(C(C)(C)C)c1)Sc1cc(C(C)(C)C)c(OCCC[C@H](O)CO)c(C(C)(C)C)c1`, the melting point fell in the range of 68 to 71 °C. For the compound `CCCCCCCCCCCCCCCCN(CCCC)CCCCCCO`, the melting point fell in the range of 58 to 59 °C. For `Nc1nc2[nH]c(CCCCCCc3ccc(C(=O)N[C@@H](CCC(=O)O)C(=O)O)s3)cc2c(=O)[nH]1`, the melting point was 183 to 184 °C.

Take `CC(C)c1nc(C(O)(C(F)(F)F)C(F)(F)F)[nH]c1-c1ccc([N+](=O)[O-])cc1`: the melting point lay within 157 to 160 °C. For `O=c1nc(-c2ccccc2)c2cc3c(cc2[nH]1)OCO3`, the melting point lay in the range of 351 to 354 °C. The result for `CCc1cccc(C)c1NCN1CCOC1=O` reads 56 to 57.5 °C.

For the compound `N#CCCNC(=O)c1cccc(-c2cccc3c(F)c(Cc4cccc(C(F)(F)F)c4)sc23)c1`, the melting point lay within 66 to 67 °C.
